Source: article PMC13534789, “Molecular Glue Degraders Enhance CAPRIN1‐Dependent Lysosomal Degradation of APP and Reduce Amyloid β in Alzheimer's Disease” (Advanced Science, 2026)

Assays:
LN229 and HCT116 cells = test: Cancer cell viability; assay type: cell-based, human
APP695‐HiBiT = biological target: T1, APP695‐HiBiT (Homo sapiens, UniProt P05067+Q14444); test: APP695-HiBiT luminescence assay in HEK293 cells; assay type: cell-based
T1 construct: expressed in transfected cells; host or cells: HEK293, lentiviral transduction, hygromycin-selected single clones (#3, #9)
Description: We previously reported CAPRIN1‐targeted molecular degraders that bind to CAPRIN1 and F‐box protein 42 (FBXO42), promoting FBXO42‐mediated proteasomal degradation of small ubiquitin‐related modifier 1 (SUMO1), an oncoprotein, in human cancers. CAPRIN1 is a neuronal RNA‐binding protein involved in neuronal development and neurodegeneration. CAPRIN1 was reported to be a binding partner of APP [28]. Therefore, we thought to investigate whether CAPRIN1‐targeted degraders could promote APP degradation in APP‐expressing cell models. To establish screening models, we tagged wild‐type APP695 (APP695), the predominant neuronal isoform, with the small HiBiT tag (APP695‐HiBiT) and expressed APP695‐HiBiT in HEK293 cells. Cell lysates were analyzed using a luminescence‐based assay of HiBiT‐tagged protein [30], identifying clone #3 and #9 with robust APP695‐HiBiT expression (Figure S1A). Western blotting and ELISA confirmed intracellular expression of APP695 and extracellular release of Aβ42 in these clones (Figure S1B,C).
(§1) HEK293 cells were purchased from the American Type Culture Collection (ATCC). […] Once expanded, clones were analyzed by ELISA for amyloid beta 42 (Aβ42), western blot for APP expression, and Hibit‐lytic assay (Promega). […]

SUMO1 = SUMO1 protein levels (western / dot blot); assay type: cell-based, human
3R‐APP695‐HiBiT = biological target: T2, 3R‐APP695‐HiBiT (Homo sapiens, UniProt P05067, K724R/K725R/K726R); test: HiBiT luminescence and Aβ42 ELISA in 3R-APP695-HiBiT HEK cells; assay type: cell-based; conditions: KKK motif K649–K651 replaced by arginines, 72 h
T2 construct: expressed in transfected cells
Description: To validate this interaction, we co‐expressed the C‐terminal domain of APP (HiBiT‐tagged C99) and the N‐terminus of FLAG‐tagged CAPRIN1 (residues 1–250) in HEK cells. Flag IP followed by western blotting confirmed the interaction between CAPRIN1 and APP (Figure 4H). To further delineate the interaction interface, we focused on a lysine‐rich (KKK) motif (K649–K651) within APP as a potential CAPRIN1‐interacting region, given its location within the cytosolic domain of C99 and its enrichment in basic residues that may mediate protein–protein interactions. To assess the functional relevance of this interaction in compound activity, we generated an APP695‐3R mutant, replacing the KKK motif (K649‐K651) with arginines by site‐directed mutagenesis. […] To further assess the role of this motif in APP‐CAPRIN1 interaction, we performed co‐immunoprecipitation experiments comparing WT‐ and 3R‐APP695‐HiBiT.
as §1, with “(ATCC). Lentiviral plasmids (pLV‐Hygro‐CMV‐hAPP, pLV‐Hygro‐CMV‐hAPP‐Hibit, and pLV‐Hygro‐CMV‐hAPP ‐3K to 3R‐Hibit) for APP695WT HEK293 and APP695‐Hibit HEK293 were generated in the third‐generation plasmid.” for “(ATCC).”

iPSC‐Ns = test: Cell viability / cytotoxicity of iPSC-derived neurons; assay type: cell-based, human; conditions: AG27606-Ns, 10 µM, 72 h
Method: Cytotoxicity test was conducted using Neutral Red Uptake assay. In brief, iPSC‐Ns seeded in 96 well plates (1 × 10^5 cells/well) were treated dose‐dependently for 5 days. Cells were washed with PBS containing CaCl2 and MgCl2 followed by the addition of Neutral red solution (40 µg/mL in PBS, Sigma–Aldrich) and incubation at 37°C for 3 h. Cells were then washed with PBS containing CaCl2 and MgCl2 two times and de‐stained using with Neutral red de‐staining solution on a plate shaker for 30 min, followed by reading at 540 nm with a Microplate reader. Cell viability was determined using the CellTiter‐Glo Luminescent Cell Viability Assay (Promega) following the manufacturer's instructions. […]

| SMILES | Cancer cell growth (LN229 and HCT116 cells) | APP695-HiBiT levels in library screen (APP695‐HiBiT; 10 µM, 24 h, APP695-HiBiT clones, vs DMSO) | SUMO1 protein levels in cancer cells (SUMO1; HCT116 and LN229 cells) | Response of 3R-APP695-HiBiT cells (HiBiT luminescence, Aβ42 ELISA) (3R‐APP695‐HiBiT) | APP695-HiBiT levels, dose and time course (APP695‐HiBiT; HEK-APP695-HiBiT cells) | Neuronal toxicity (CellTiter-Glo) (iPSC‐Ns) | SUMO1 levels in neuronal cells (SUMO1; AG27606-derived neurons, 10 µM, 3 days) |
| --- | --- | --- | --- | --- | --- | --- | --- |
| N#Cc1cccc(NC(=O)Nc2nc3ccc(C(=O)N4CCOCC4)cc3s2)c1 [compound 0043] | no effects | more effective | no effects | – | – | – | – |
| COc1cccc(NC(=O)Nc2nc3ccc(C(=O)N4CCOCC4)cc3s2)c1 [compound 0152] | – | – | – | no response | dose‐ and time‐dependent reduction in APP695‐HiBiT levels | without neuronal toxicity | no appreciable change |
